This note sets out measurements from patent publication US5506213A, “Adminstration of 2'-halo-2'-deoxy adenosine to treat inflammatory bowel disease” (priority 1994, dated 1996).

Experiment [1] has as its system human fibroblast cell line GM01380. Kind of experiment: In vitro cytotoxicity toward human fibroblast cell line (MTT reduction assay). Type of experiment: cell-based. The following applies: 20 nM CdA, five days. The protocol: FIG. 2 is a graph illustrating the dose-response cytotoxicity of 2-chlorodeoxyadenosine (CdA) towards normal human monocytes (open squares), the human fibroblast cell line, GM01380, which is from normal fetal lung (open diamonds) and normal human lymphocytes (closed diamonds), when cultured in vitro. Cells were cultured in vitro as described in Example 2 for five days in the presence of varying concentrations of CdA from 0 to 125 nanomolar (nM), after which time viable cells were determined. The percentage of viable cells remaining after treatment (ordinate) is plotted against the concentration of CdA utilized (abscissa), on a linear scale. The effect of the presence of deoxycytidine (dCyd, 100 μM) on CdA toxicity toward monocytes (closed squares) is also illustrated. […]
Toxicity towards the monocytes and fibroblasts was determined by a modification of the MTT reduction assay described in Mosmann (1983) J. Immunol. […]
Viable cell numbers were determined using a Dynatech microplate spectrophotometer, measuring absorbance at a wavelength of 570 nanometers (nm), using a reference wavelength of 630 nm. The assay could detect as few as 2000 unactivated monocytes, and the absorbance of MTT formazan at 570 nm was linear with respect to the number of monocytes over a range of about 2.5-20×10^3 cells.

For a further experiment, the system named is human monocytes. As to the kind of experiment: Cellular NAD, ATP and viability in human monocytes exposed to CdA. The experiment is classed as cell-based. The conditions noted are these: CdA at 1 nM. Here is the method: FIG. 5 is a graph showing the biochemical effects induced in human monocytes in vitro by exposure to […] CdA over a period of 16 hours. The effects of CdA exposure upon monocyte viability (open squares), NAD content (closed squares), RNA synthesis (open circles) and DNA strand breaks (ds-DNA; closed circles) are illustrated.
Cellular NAD content was measured in human monocytes following incubation in culture with CdA (1 nM). An alcohol dehydrogenase cycling assay as described in Jacobson and Jacobson (1976) Arch. Biochem. Biophys. 175:627-634 was used to measure NAD.
Monocytes, cultured and contacted as before described, were detached from the culture wells and were treated with perchloric acid (0.5M) for 10 minutes at 4 degrees C. The mixture was clarified and neutralized with KOH containing potassium phosphate buffer (0.33M) at pH 7.5.Monocyte ATP was quantitated in perchloric acid extracts by anion exchange HPLC, using a Whatman SAX column with an isocratic mobile phase consisting of KH2 PO4 (0.25M), KCl (0.5M) and acetonitrile (2 percent) at pH 3.6 following the procedures of Carson et al. (1980) Proc. Nat'l. Acad, Sci. USA, 77:6865-6869.
NAD^+ consumption for poly(ADP-ribose) synthesis is a known consequence of severe DNA damage in eukaryotic cells. […]

A further experiment relates to interleukin-1β (IL-1β). Kind of experiment: Plasma IL-1beta in a rheumatoid arthritis patient, ELISA. Type of experiment: in vivo, human. The conditions noted are these: each last infusion day compared to pretreatment values; one patient; preliminary. From the text:
Preliminary studies have also measured the concentration of interleukin-1β (IL-1β) in cryopreserved plasma samples from one of the rheumatoid arthritis patients. IL-1β is a lymphokine released by antigen-stimulated macrophages that promotes the formation of interleukin-2 in antigen-activated cytotoxic T cells. IL-2 promotes mitosis in activated cytotoxic T cells.
This patient received CdA, as before, in four treatments over a time period of almost 100 days. Each treatment was by 5-day continuous infusion.
IL-1β concentrations were measured using a commercially available ELISA kit (Cistron).
A general note: In an ELISA, binding on a coated surface is turned into a signal by an enzyme label.

In a further experiment the test system is neopterin. Kind of experiment: Plasma neopterin levels in a rheumatoid arthritis patient treated with CdA. Type of experiment: in vivo, human. The protocol: Plasma neopterin levels were measured in a patient with rheumatoid arthritis. Neopterin is released from monocytes and macrophages activated in an immune response. Huber et al., J. Exp. Med., 160:310-316 (1984). Likewise, high levels of neopterin are associated with clinical activity in patients with rheumatoid arthritis. Clinical activity was rated by the following criteria: duration of morning stiffness, range of motion, subjective pain score, measurement of grip strength, synovial thickening, and number of inflamed joints. Reibnegger et al., Arthritis Rheum., 29:1063-1070 (1986). The levels of neopterin in patients with rheumatoid arthritis are proportional to both clinical activity and the levels of activated monocytes and macrophages in these patients.
In this study, a patient with rheumatoid arthritis received CdA by a weekly, four hour intravenous infusion at a dosage of 0.125 to 0.15 mg/kg body weight for an approximately three month course of therapy. Plasma neopterin levels were measured throughout this treatment regime.

In another experiment the test system is CEM, wild type. As to the kind of experiment: Direct comparative cytotoxicity assay (Table II), CEM wild type. Type of experiment: cell-based, human. The conditions noted are these: Homo sapiens, 120 h, read-out: ID50: concentration that produced 50 percent reduction in all numbers after five days. From the text:
The two compounds, CdA and CAFdA, were also compared for in vitro activity against another group of human cell lines in a direct comparative assay.
^1 Concentration that produced 50 percent reduction in all numbers
^2 CEM cells are T lymphoblasts; DHL9 cells are lymphoblasts.

For `Nc1nc(Cl)nc2c1ncn2[C@H]1C[C@H](O)[C@@H](CO)O1` [CdA, 2-chloro-9,1'-beta-D-2'-deoxyribosyladenine], the “toxicity on the growth of fibroblast cells” value in experiment [1] is recorded as “no appreciable toxicity”. The “exposure time at which decreases in ATP and cell viability were first evident” value with human monocytes stood at 16 h. The “monocyte NAD content” value with human monocytes (first four hours of exposure) is > 95% of control NAD. Also, the “plasma IL-1β level” value in the experiment on interleukin-1β (IL-1β) is given as “significantly lower”. In addition, the plasma neopterin result with neopterin (by about day 84 of therapy) is given as “about 18 nM”; in the experiment on neopterin (days 14 through 70 after the first administration), “about 30 nM”; in the experiment on neopterin (initial value, weekly four hour i.v. infusion 0.125 to 0.15 mg/kg), “about 60 nM”; in the experiment with neopterin (within the first seven days of therapy), “about 25 nM”. Also, the IC50 with CEM, wild type was 21 nM.
